Reference: patent US4578383A, “CL 1565 antibiotic compounds” (priority 1984, dated 1986)
Where two headings read alike, the source gives them in different places.

Tested on: P388 Lymphatic Leukemia
Format: in vivo, Mice
Description: The test method used is based on that described in Cancer Chemother. Reports 3:1-87 (part 3), 1972.

[1] = 3.1 mg/kg/day (CL 1565-T and CL 1565-B tables)
[2] = 6.3 mg/kg/day (CL 1565-T and CL 1565-B tables)
[3] = 12.5 mg/kg/day (CL 1565-T and CL 1565-B tables)

Compound	T/C × 100 [1]	T/C × 100 [2]	T/C × 100 [3]	T/C × 100 (toxicity noted) (25.0 mg/kg/day (CL 1565-B table))	T/C × 100 (25.0 mg/kg/day (CL 1565-T table))
CC=CC=CC=CC(O)CC(OP(=O)(O)O)C(C)(O)C=CC1CC=CC(=O)O1 (centres unmarked) [CL 1565-B]	129	142	178	Toxic	–
CC(O)(C=CC1OC(=O)C=CC1O)C(CC(O)C=CC=CC=CCO)OP(=O)(O)O (centres unmarked) [CL 1565-T]	147	142	147	–	157
